Test results reported in patent US20190309272A1, “Genetically Modified Cell Lines Including a TP53 Modification and Methods of Use” (UNIVERSITY OF SOUTH CAROLINA, priority 2018, published 2019).
Where a name gives a salt, the structure may show the parent alone. Read-outs that look alike come from different tables or passages of the source. Starred links: 1 amine or outer side, 2 acyl side, 3 side chain; linkers in the order of their positions; H or OH if unused. Positions of bridges follow the written chain, without caps; N, C: chain ends. Non-standard residues stand in square brackets, D forms with d. Residues, ends and D or L forms follow the SMILES beside them. Chains are numbered I, II in the order given. Actinocin(9to1) = Cc1c2oc3c(C)ccc(C(=O)[*:1])c3nc-2c(C(=O)[*:2])c(N)c1=O; NMeV = CN[C@H](C(=O)O)C(C)C; Sar = CNCC(=O)O

Columns and labels:
Assay type in all cases: cell-based, Human
MCF7 WT Parental pool = assay: Drug screening, resazurin, MCF7 wild type parental pool
MCF7 TP53 KO 3.4 pool = assay: Drug screening, resazurin, TP53 KO 3.4 pool
MCF7 TP53 KO 5.6 pool = assay: Drug screening, resazurin, TP53 KO 5.6 pool
[1] = ten-day drug treatment, 156.25 nM to 10 μM, resazurin fluorescence

Row | Compound | MCF7 WT Parental pool (AUC) (MCF7 WT Parental pool; [1]) | TP53 KO 3.4 pool (AUC) (MCF7 TP53 KO 3.4 pool; [1]) | TP53 KO 5.6 pool (AUC) (MCF7 TP53 KO 5.6 pool; [1]) | MCF7 WT Parental pool (AUC) (MCF7 WT Parental pool) | TP53 KO 3.4 pool (AUC) (MCF7 TP53 KO 3.4 pool) | TP53 KO 5.6 pool (AUC) (MCF7 TP53 KO 5.6 pool)
1 | C[C@]12CC[C@H](O)CC1=CC[C@@H]1[C@@H]2CC[C@]2(C)C(c3cccnc3)=CC[C@@H]12 [Abiraterone] | 8.378 | 8.785 | 9.254 |  |  | 
2 | CN(C)C/C=C/C(=O)Nc1cc2c(Nc3ccc(F)c(Cl)c3)ncnc2cc1O[C@H]1CCOC1 [Afatanib] | 2.734 | 2.48 | 2.139 |  |  | 
3 | CCc1cc2c(cc1N1CCC(N3CCOCC3)CC1)C(C)(C)c1[nH]c3cc(C#N)ccc3c1C2=O [Alectinib] | 5.763 | 4.51 | 2.7 |  |  | 
4 | CN(C)c1nc(N(C)C)nc(N(C)C)n1 [Altretamine] | 8.059 | 8.874 | 8.473 |  |  | 
5 | NCCCNCCSP(=O)(O)O [Amifostine] | 8.456 | 9.108 | 9.73 |  |  | 
6 | NCC(=O)CCC(=O)O [Aminolevulinic Acid] | 8.749 | 9.101 | 8.787 |  |  | 
7 | CC(C)(C#N)c1cc(Cn2cncn2)cc(C(C)(C)C#N)c1 [Anastrozole] | 8.01 | 8.067 | 8.828 |  |  | 
8 | CNC(=O)c1ccccc1Sc1ccc2c(/C=C/c3ccccn3)n[nH]c2c1 [Axitinib] | 2.581 | 3.743 | 3.786 |  |  | 
9 | Nc1ncn([C@@H]2O[C@H](CO)[C@@H](O)[C@H]2O)c(=O)n1 [Azactidine] | 8.861 | 9.05 | 6.373 |  |  | 
10 | O=C(/C=C/c1cccc(S(=O)(=O)Nc2ccccc2)c1)NO [Belinostat] | 1.423 | 1.525 | 1.322 |  |  | 
11 | Cn1c(CCCC(=O)O)nc2cc(N(CCCl)CCCl)ccc21 [Bendamustine Hydrochloride] |  |  |  | 9.021 | 9.503 | 10.23
12 | CC(C)C[C@H](NC(=O)[C@H](Cc1ccccc1)NC(=O)c1cnccn1)B(O)O [Bortezomib] | 0.6974 | 0.673 | 0.7486 |  |  | 
13 | COc1cc(Nc2c(C#N)cnc3cc(OCCCN4CCN(C)CC4)c(OC)cc23)c(Cl)cc1Cl [Bosutinib] | 8.686 | 9.254 | 9.588 |  |  | 
14 | CS(=O)(=O)OCCCCOS(C)(=O)=O [Busulfan] | 9.118 | 9.336 | 8.834 |  |  | 
15 | CO[C@H]1C(=O)[C@]2(C)[C@@H](OC)C[C@H]3OC[C@@]3(OC(C)=O)[C@H]2[C@H](OC(=O)c2ccccc2)[C@]2(O)C[C@H](OC(=O)[C@H](O)[C@@H](NC(=O)OC(C)(C)C)c3ccccc3)C(C)=C1C2(C)C [Cabazitaxel] | 1.406 | 1.658 | 1.713 |  |  | 
16 | COc1cc2nccc(Oc3ccc(NC(=O)C4(C(=O)Nc5ccc(F)cc5)CC4)cc3)c2cc1OC [Cabozantinib] | 4.126 | 4.376 | 4.52 |  |  | 
17 | CCCCCOC(=O)Nc1nc(=O)n([C@@H]2O[C@H](C)[C@@H](O)[C@H]2O)cc1F [Capecitabine] | 9.004 | 9.208 | 9.284 |  |  | 
18 | N.N.O=C([O-])C1(C(=O)[O-])CCC1.[Pt+2] [Carboplatin] | 8.83 | 9.302 | 8.343 |  |  | 
19 | CC(C)C[C@H](NC(=O)[C@H](CCc1ccccc1)NC(=O)CN1CCOCC1)C(=O)N[C@@H](Cc1ccccc1)C(=O)N[C@@H](CC(C)C)C(=O)[C@@]1(C)CO1 [Carfilzomib] | 0.6359 | 0.6462 | 0.6678 |  |  | 
20 | O=NN(CCCl)C(=O)NCCCl [Carmustine] | 9.622 | 9.826 | 9.965 |  |  | 
21 | Cc1cc(Nc2ncc(Cl)c(Nc3ccccc3S(=O)(=O)C(C)C)n2)c(OC(C)C)cc1C1CCNCC1 [Ceritinib] | 1.637 | 1.482 | 1.421 |  |  | 
22 | O=C(O)CCCc1ccc(N(CCCl)CCCl)cc1 [Chlorambucil] | 16.08 | 16.5 | 17.6 |  |  | 
23 | N.N.[Cl][Pt][Cl] [Cisplatin] | 7.335 | 6.27 | 7.44 |  |  | 

Row | Compound | MCF7 WT Parental pool (AUC) (MCF7 WT Parental pool; [1]) | TP53 KO 3.4 pool (AUC) (MCF7 TP53 KO 3.4 pool; [1]) | TP53 KO 5.6 pool (AUC) (MCF7 TP53 KO 5.6 pool; [1]) | MCF7 WT Parental pool (AUC) (MCF7 WT Parental pool) | TP53 KO 3.4 pool (AUC) (MCF7 TP53 KO 3.4 pool) | TP53 KO 5.6 pool (AUC) (MCF7 TP53 KO 5.6 pool)
24 | Nc1nc(Cl)nc2c1ncn2[C@H]1C[C@H](O)[C@@H](CO)O1 [Cladribine] | 5.569 | 3.767 | 3.956 |  |  | 
25 | Nc1nc(Cl)nc2c1ncn2[C@@H]1O[C@H](CO)[C@@H](O)[C@@H]1F [Clofarabine] | 5.232 | 3.085 | 3.74 |  |  | 
26 | CC1=C2C[C@H]3[C@@H](CC=C4C[C@@H](O)CC[C@@]43C)[C@@H]2CC[C@]12O[C@@H]1C[C@H](C)CN[C@H]1[C@H]2C [Clyclopamine] | 9.488 | 9.033 | 9.093 |  |  | 
27 | O=C(c1ccc(F)c(F)c1Nc1ccc(I)cc1F)N1CC(O)([C@@H]2CCCCN2)C1 [Cobimetinib] | 7.621 | 4.851 | 8.041 |  |  | 
28 | C[C@@H](Oc1cc(-c2cnn(C3CCNCC3)c2)cnc1N)c1c(Cl)ccc(F)c1Cl [Crizotinib] | 2.549 | 2.325 | 2.941 |  |  | 
29 | O=P1(N(CCCl)CCCl)NCCCO1 (stereo not shown) [Cyclophosphamide] |  |  |  | 16.16 | 15.2 | 16.92
30 | Nc1ccn([C@@H]2O[C@H](CO)[C@@H](O)[C@@H]2O)c(=O)n1 [Cytarabine Hydrochloride] | 4.771 |  |  |  |  | 
31 | Cc1c2oc3c(C)ccc(C(=O)N[C@@H]4C(=O)N[C@H](C(C)C)C(=O)N5CCC[C@H]5C(=O)N(C)CC(=O)N(C)[C@@H](C(C)C)C(=O)O[C@@H]4C)c3nc-2c(C(=O)N[C@@H]2C(=O)N[C@H](C(C)C)C(=O)N3CCC[C@H]3C(=O)N(C)CC(=O)N(C)[C@@H](C(C)C)C(=O)O[C@@H]2C)c(N)c1=O [Dactinomycin] (I: T[dV]P[Sar][NMeV] / II: T[dV]P[Sar][NMeV]; ester I:1-I:C, II:1-II:C; linker I:N-II:N via Actinocin(9to1)) | 2.01 | 1.588 | 1.65 |  |  | 
32 | Cc1nc(Nc2ncc(C(=O)Nc3c(C)cccc3Cl)s2)cc(N2CCN(CCO)CC2)n1 [Dasatinib] | 4.282 | 4.014 | 4.43 |  |  | 
33 | C[C@@H](CN1CC(=O)NC(=O)C1)N1CC(=O)NC(=O)C1 [Dexrazoxane] | 8.317 | 8.753 | 8.868 |  |  | 
34 | CC(=O)O[C@@]12CO[C@@H]1C[C@H](O)[C@@]1(C)C(=O)[C@H](O)C3=C(C)[C@@H](OC(=O)[C@H](O)[C@@H](NC(=O)OC(C)(C)C)c4ccccc4)C[C@@](O)([C@@H](OC(=O)c4ccccc4)[C@H]21)C3(C)C [Docetaxel] | 1.432 | 1.639 | 1.663 |  |  | 
35 | COc1cccc2c1C(=O)c1c(O)c3c(c(O)c1C2=O)C[C@@](O)(C(=O)CO)C[C@@H]3O[C@H]1C[C@H](N)[C@H](O)[C@H](C)O1 [Doxorubicin Hydrochloride] | 0.9435 |  |  |  | 0.9013 | 1.009
36 | CNC(=O)c1ccc(N2C(=S)N(c3ccc(C#N)c(C(F)(F)F)c3)C(=O)C2(C)C)cc1F [Enzalutamide] | 8.931 | 8.864 | 8.634 |  |  | 
37 | COc1cccc2c1C(=O)c1c(O)c3c(c(O)c1C2=O)C[C@@](O)(C(=O)CO)C[C@@H]3O[C@H]1C[C@H](N)[C@@H](O)[C@H](C)O1 [Epirubicin Hydrochloride] | 0.8944 |  |  |  | 0.9399 | 1.019
38 | Cc1c(C(=O)Nc2ccc(N3C[C@@H](C)O[C@@H](C)C3)nc2)cccc1-c1ccc(OC(F)(F)F)cc1 [Erismodgib] | 7.435 | 6.922 | 7.491 |  |  | 
39 | C=C1C[C@@H]2[C@H](CC[C@]3(C)C(=O)CC[C@@H]23)[C@@]2(C)C=CC(=O)C=C12 [Exemestane] | 8.564 |  |  |  |  | 
40 | CC(=O)[C@]1(O)Cc2c(O)c3c(c(O)c2[C@@H](O[C@H]2C[C@H](N)[C@H](O)[C@H](C)O2)C1)C(=O)c1ccccc1C3=O [Idarubicin Hydrochloride] | 0.958 |  |  |  |  | 
41 | O=C1c2c(O)ccc(O)c2C(=O)c2c(NCCNCCO)ccc(NCCNCCO)c21 [Mitoxantrone] | 2.338 |  |  |  |  | 
42 | OC[C@H]1O[C@@H](n2cnc3c2NC=NC[C@H]3O)C[C@@H]1O [Pentostatin] | 10.31 |  |  |  |  | 
43 | CNC(=O)c1cc(Oc2ccc(NC(=O)Nc3ccc(Cl)c(C(F)(F)F)c3)cc2)ccn1 [Sorafenib] | 3.981 |  |  |  |  | 
44 | CO[C@H]1C[C@@H]2CC[C@@H](C)[C@@](O)(O2)C(=O)C(=O)N2CCCC[C@H]2C(=O)O[C@H]([C@H](C)C[C@@H]2CC[C@@H](OC(=O)C(C)(CO)CO)[C@H](OC)C2)CC(=O)[C@H](C)/C=C(\C)[C@@H](O)[C@@H](OC)C(=O)[C@H](C)C[C@H](C)/C=C/C=C/C=C/1C [Temsirolimus] | 2.486 |  |  |  |  | 
45 | Nc1nc2nc[nH]c2c(=S)[nH]1 [Thioguanine] | 4.122 |  |  |  |  | 
46 | Dabrafenib Mesylate | 14.9 | 14.73 |  |  |  | 
